Data published in PubChem BioAssay AID330 (DTP/NCI, 2004).
Several values for one entry are separate records, joined by “and”; a condition that tells them apart may be missing. Equal values may be shown once. Toxic doses and inconclusive results are not listed. How the source made its calls: active means survival T/C of 150% or more; inactive means T/C below 125% in these data.

Test system: P388 leukemia ip, CD2F1 mice, survival T/C
Assay: NCI In Vivo Anticancer Drug Screen. Data for tumor model P388 Leukemia (intraperitoneal) in CD2F1 (CDF1) mice
Conditions: endpoint: median survival time, higher = longer survival
In short: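 Mice carrying the transplanted tumor received test compound or vehicle. Survival was recorded in each group, and the value is the treated-group measurement divided by that of the vehicle-treated control group.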

[1] = dose: 100.0 mg/kg/injection, schedule: Q01DX009 (ip), vehicle: saline with Tween-80
[2] = dose: 200.0 mg/kg/injection, schedule: Q01DX009 (ip), vehicle: saline with Tween-80
[3] = dose: 50.0 mg/kg/injection, schedule: Q01DX005 (ip), vehicle: saline with Tween-80
[4] = dose: 100.0 mg/kg/injection, schedule: Q01DX005 (ip), vehicle: saline with Tween-80
[5] = dose: 12.5 mg/kg/injection, schedule: Q01DX009 (ip), vehicle: other
[6] = dose: 25.0 mg/kg/injection, schedule: Q01DX009 (ip), vehicle: other
[7] = dose: 200.0 mg/kg/injection, schedule: Q01DX005 (ip), vehicle: saline with Tween-80
[8] = dose: 50.0 mg/kg/injection, schedule: Q01DX005 (ip), vehicle: Klucel (hydroxypropylcellulose) (HPC)
[9] = dose: 100.0 mg/kg/injection, schedule: Q01DX005 (ip), vehicle: Klucel (hydroxypropylcellulose) (HPC)
[10] = dose: 200.0 mg/kg/injection, schedule: Q01DX005 (ip), vehicle: Klucel (hydroxypropylcellulose) (HPC)
[11] = dose: 60.0 mg/kg/injection, schedule: Q01DX005 (ip), vehicle: saline with Tween-80
[12] = dose: 120.0 mg/kg/injection, schedule: Q01DX005 (ip), vehicle: saline with Tween-80
[13] = dose: 50.0 mg/kg/injection, schedule: Q01DX005 (ip), vehicle: saline
[14] = dose: 100.0 mg/kg/injection, schedule: Q01DX005 (ip), vehicle: saline
[15] = dose: 100.0 mg/kg/injection, schedule: Q01DX001 (ip), vehicle: Klucel (hydroxypropylcellulose) (HPC)
[16] = dose: 25.0 mg/kg/injection, schedule: Q01DX009 (ip), vehicle: saline with Tween-80
[17] = dose: 50.0 mg/kg/injection, schedule: Q01DX009 (ip), vehicle: saline with Tween-80

Measured: T/C

CC1(C)CC2(OC2c2ccccc2[N+](=O)[O-])C(=O)c2ccccc21 (centres undefined)
inactive: [1] 100 % of control | [2] 100 % of control | dose: 400.0 mg/kg/injection, schedule: Q01DX009 (ip), vehicle: saline with Tween-80 100 % of control

CC1Cc2ccc(OCCN(C)C)cc2C1=O (centres undefined)
inactive: [3] 98 % of control | [4] 99 % of control

CCOCC(=O)c1ccc2c(O)c3c(c(O)c2c1)C(=O)c1cccc(OC)c1C3=O
inactive: dose: 1.56 mg/kg/injection, schedule: Q01DX009 (ip), vehicle: other 105 % of control | dose: 3.13 mg/kg/injection, schedule: Q01DX009 (ip), vehicle: other 104 % of control | dose: 6.25 mg/kg/injection, schedule: Q01DX009 (ip), vehicle: other 103 % of control | [5] 106 % of control | [6] 108 % of control

CCCNNC(N)=S
inactive: [5] 105 % of control | [6] 105 % of control

CCCCCCCC/C=C\CCCCCCCC(=O)OCCCCCCCCCCCC
inactive: dose: 6.25 mg/kg/injection, schedule: Q01DX012 (ip), vehicle: saline with Tween-80 100 % of control | dose: 12.5 mg/kg/injection, schedule: Q01DX012 (ip), vehicle: saline with Tween-80 104 % of control | dose: 50.0 mg/kg/injection, schedule: Q01DX012 (ip), vehicle: saline with Tween-80 100 % of control | dose: 100.0 mg/kg/injection, schedule: Q01DX012 (ip), vehicle: saline with Tween-80 98 % of control | dose: 200.0 mg/kg/injection, schedule: Q01DX012 (ip), vehicle: saline with Tween-80 101 % of control | dose: 500.0 mg/kg/injection, schedule: Q01DX012 (ip), vehicle: saline with Tween-80 106 % of control | dose: 872.0 mg/kg/injection, schedule: Q01DX012 (ip), vehicle: saline with Tween-80 97 % of control

CCOC(=Nc1ccc2ccccc2c1)SC(c1ccccc1)(c1ccccc1)c1ccccc1
inactive: [3] 107 % of control | [4] 95 % of control | [7] 87 % of control

ONc1ccc2c(c1)C1C(C3C2C2(Cl)C(Cl)=C(Cl)C3(Cl)C2(Cl)Cl)C2(Cl)C(Cl)=C(Cl)C1(Cl)C2(Cl)Cl (centres undefined)
inactive: dose: 50.0 mg/kg/injection, schedule: Q01DX009 (ip), vehicle: saline 96 % of control | dose: 100.0 mg/kg/injection, schedule: Q01DX009 (ip), vehicle: saline 99 % of control | dose: 200.0 mg/kg/injection, schedule: Q01DX009 (ip), vehicle: saline 92 % of control

CC(=O)C(CCCn1c(=O)c2c(ncn2C)n(C)c1=O)C(C)=O
inactive: dose: 25.0 mg/kg/injection, schedule: Q01DX005 (ip), vehicle: Klucel (hydroxypropylcellulose) (HPC) 102 % of control | [8] 105 % of control | [9] 98 % of control

C=C1C(=O)OC2C(OC=O)CCCC12 (centres undefined)
inactive: dose: 60.0 mg/kg/injection, schedule: Q01DX005 (ip), vehicle: Klucel (hydroxypropylcellulose) (HPC) 100 % of control | dose: 120.0 mg/kg/injection, schedule: Q01DX005 (ip), vehicle: Klucel (hydroxypropylcellulose) (HPC) 103 % of control

CCc1nc2c(cnn2C)c(=O)n1C
inactive: [8] 89 % of control | [9] 98 % of control | [10] 90 % of control

Cc1ccc(S(=O)(=O)C(C#N)CCC(=O)c2ccc(Cl)cc2)cc1 (centres undefined)
inactive: [8] 107 % of control | [9] 106 % of control | [10] 105 % of control

CC12CC1CCCC2OC(=O)c1cc([N+](=O)[O-])cc([N+](=O)[O-])c1 (centres undefined)
inactive: dose: 100.0 mg/kg/injection, schedule: Q04DX003 (ip), vehicle: saline with Tween-80 100 % of control | dose: 200.0 mg/kg/injection, schedule: Q04DX003 (ip), vehicle: saline with Tween-80 95 % of control | dose: 400.0 mg/kg/injection, schedule: Q04DX003 (ip), vehicle: saline with Tween-80 98 % of control

CC(C)(C)C(=O)NC(OC(NC(=O)C(C)(C)C)C(=O)C(C)(C)C)C(=O)C(C)(C)C (centres undefined)
inactive: [11] 97 % of control | [12] 99 % of control | dose: 240.0 mg/kg/injection, schedule: Q01DX005 (ip), vehicle: saline with Tween-80 105 % of control

OCc1c(Cl)n(-c2ccccc2)c2ccccc12
inactive: dose: 100.0 mg/kg/injection, schedule: Q04DX002 (ip), vehicle: Klucel (hydroxypropylcellulose) (HPC) 96 % of control | dose: 400.0 mg/kg/injection, schedule: Q04DX002 (ip), vehicle: Klucel (hydroxypropylcellulose) (HPC) 98 % of control

CC(C)=CCc1c(O)ccc(C(=O)C2C(c3c(O)cc(-c4cc5ccc(O)cc5o4)cc3O)C=C(C)CC2c2ccc(O)cc2O)c1O (centres undefined)
inactive: dose: 3.75 mg/kg/injection, schedule: Q01DX005 (ip), vehicle: water 94 % of control | dose: 7.5 mg/kg/injection, schedule: Q01DX005 (ip), vehicle: water 103 % of control | dose: 15.0 mg/kg/injection, schedule: Q01DX005 (ip), vehicle: water 99 % of control | dose: 30.0 mg/kg/injection, schedule: Q01DX005 (ip), vehicle: water 110 % of control | dose: 60.0 mg/kg/injection, schedule: Q01DX005 (ip), vehicle: water 113 % of control

CC1CCP(=O)(c2ccccc2)C1 (centres undefined)
inactive: [13] 104 % of control | [14] 105 % of control | dose: 200.0 mg/kg/injection, schedule: Q01DX005 (ip), vehicle: saline 105 % of control

Cc1ccc(S(=O)(=O)N/N=C\c2c(-c3ccc(Cl)cc3)nc3sccn23)cc1
inactive: [15] 93 % of control | dose: 200.0 mg/kg/injection, schedule: Q01DX001 (ip), vehicle: Klucel (hydroxypropylcellulose) (HPC) 94 % of control

NCCCN1c2ccccc2Sc2ccc(Cl)cc21
inactive: [16] 99 % of control and 90 % of control | [17] 113 % of control and 120 % of control

O=C(O)c1cc2ccccc2c(N=Nc2cc(C(F)(F)F)ccc2Cl)c1O
inactive: dose: 12.5 mg/kg/injection, schedule: Q01DX005 (ip), vehicle: saline with Tween-80 102 % of control | dose: 25.0 mg/kg/injection, schedule: Q01DX005 (ip), vehicle: saline with Tween-80 100 % of control | [3] 98 % of control and 100 % of control | [7] 86 % of control

O=C1CCC2(c3ccccc3)CCCN=C2N1 (centres undefined)
inactive: dose: 100.0 mg/kg/injection, schedule: Q01DX001 (ip), vehicle: saline with Tween-80 104 % of control | dose: 200.0 mg/kg/injection, schedule: Q01DX001 (ip), vehicle: saline with Tween-80 99 % of control

CC(C)CC(=O)NC(C(=O)NC(C(=O)NC(CC(C)C)C(O)CC(=O)NC(C)C(=O)NC(CC(C)C)C(O)CC(=O)O)C(C)C)C(C)C (centres undefined)
inactive: dose: 6.25 mg/kg/injection, schedule: Q01DX009 (ip), vehicle: Klucel (hydroxypropylcellulose) (HPC) 102 % of control | dose: 50.0 mg/kg/injection, schedule: Q01DX009 (ip), vehicle: Klucel (hydroxypropylcellulose) (HPC) 98 % of control and 122 % of control and 87 % of control | dose: 100.0 mg/kg/injection, schedule: Q01DX009 (ip), vehicle: Klucel (hydroxypropylcellulose) (HPC) 90 % of control and 95 % of control

CC12CCC3C(CCC4(O)C=CCCC34C=O)C1(O)CC(O)C2c1ccc(=O)oc1 (centres undefined)
inactive: [16] 97 % of control | [17] 91 % of control | [1] 91 % of control | [2] 91 % of control

CC(=O)OC1C(=O)C(C)(C)CN(C(C)(C)C)CC1(C)C (centres undefined)
inactive: dose: 50.0 mg/kg/injection, schedule: Q01DX001 (ip), vehicle: saline sonified 100 % of control | dose: 100.0 mg/kg/injection, schedule: Q01DX001 (ip), vehicle: saline sonified 104 % of control | dose: 200.0 mg/kg/injection, schedule: Q01DX001 (ip), vehicle: saline sonified 95 % of control

Oc1c(CN2CCCCC2)ccc2cccnc12
inactive: dose: 0.78 mg/kg/injection, schedule: Q01DX009 (ip), vehicle: saline with Tween-80 107 % of control and 92 % of control | dose: 1.56 mg/kg/injection, schedule: Q01DX009 (ip), vehicle: saline with Tween-80 99 % of control and 97 % of control | dose: 3.12 mg/kg/injection, schedule: Q01DX009 (ip), vehicle: saline with Tween-80 107 % of control | dose: 6.25 mg/kg/injection, schedule: Q01DX009 (ip), vehicle: saline with Tween-80 99 % of control and 110 % of control and 122 % of control | dose: 12.5 mg/kg/injection, schedule: Q01DX009 (ip), vehicle: saline with Tween-80 99 % of control and 106 % of control and 108 % of control | [16] 113 % of control | [17] 113 % of control

CCOP(=O)(OCC)C(N)Cc1c[nH]c2ccccc12 (centres undefined)
inactive: [13] 101 % of control | [14] 104 % of control

Cn1c(=O)c2c(nnc(-c3ccc(Cl)cc3)[n+]2[O-])n(C)c1=O
inactive: [15] 106 % of control

O=C(Cc1n[nH]c(=S)nc1CC(=O)c1cccnc1)c1cccnc1
inactive: [11] 100 % of control | [12] 96 % of control
